Laboratory results published in PubChem BioAssay AID1259407 (Chemical Carcinogenesis Research Information System (CCRIS), 2018).
The source made the active and inactive calls. No rule for the calls is given here.

System: CCRIS mutagenicity, Ames/micronucleus/aberration tests
Experiment: CCRIS mutagenicity studies
[1] = Test System: AMES SALMONELLA TYPHIMURIUM, Strain/Indicator: TA98, Metabolic Activation: NONE, Method: STANDARD PLATE
[2] = Test System: AMES SALMONELLA TYPHIMURIUM, Strain/Indicator: TA100, Metabolic Activation: NONE, Method: STANDARD PLATE
[3] = Test System: AMES SALMONELLA TYPHIMURIUM, Strain/Indicator: TA98, Metabolic Activation: NONE, Method: PREINCUBATION
[4] = Test System: AMES SALMONELLA TYPHIMURIUM, Strain/Indicator: TA98, Metabolic Activation: RAT, LIVER, S-9, PCB, Method: PREINCUBATION
[5] = Test System: AMES SALMONELLA TYPHIMURIUM, Strain/Indicator: TA100, Metabolic Activation: NONE, Method: PREINCUBATION
[6] = Test System: AMES SALMONELLA TYPHIMURIUM, Strain/Indicator: TA1535, Metabolic Activation: NONE, Method: PREINCUBATION

In the case of `O=[N+]([O-])c1ccc2c3c(cccc13)-c1cc(O)ccc1-2`, the mutagenic call (Test System: AMES SALMONELLA TYPHIMURIUM, Strain/Indicator: TA98(1,8-DNP6), Metabolic Activation: NONE, Method: STANDARD PLATE) is reported as “inactive; negative”, the mutagenic call (Test System: AMES SALMONELLA TYPHIMURIUM, Strain/Indicator: TA98(NR), Metabolic Activation: NONE, Method: STANDARD PLATE) is reported as “active; positive” and the mutagenic call [1] is reported as “active; positive”. The mutagenic call (Test System: AMES SALMONELLA TYPHIMURIUM, Strain/Indicator: TA98, Metabolic Activation: RAT, LIVER, S-9, AROCLOR 1254, Method: STANDARD PLATE) was “active; positive”, the mutagenic call (Test System: AMES SALMONELLA TYPHIMURIUM, Strain/Indicator: TA100(NR), Metabolic Activation: NONE, Method: STANDARD PLATE) was “inactive; negative” and the mutagenic call (Test System: AMES SALMONELLA TYPHIMURIUM, Strain/Indicator: TA100(TN5-1,8-DNP1012), Metabolic Activation: NONE, Method: STANDARD PLATE) was “inactive; negative”. The mutagenic call [2] was “active; positive”.

`CNc1ccc2nccnc2c1C` was tested, and the mutagenic call [3] was “inactive; negative”, the mutagenic call [4] was “active; positive” and the mutagenic call [5] was “inactive; negative”.

For `O=C1c2ccccc2C(=O)c2c1cc(O)c(CO)c2O`, the mutagenic call [3] was “active; positive”, the mutagenic call (Test System: AMES SALMONELLA TYPHIMURIUM, Strain/Indicator: TA98, Metabolic Activation: RAT, LIVER, S-9, AROCLOR 1254, Method: PREINCUBATION) was “active; positive” and the mutagenic call [4] was “active; positive”. For the same compound, the mutagenic call [5] was “active; positive”, the mutagenic call (Test System: AMES SALMONELLA TYPHIMURIUM, Strain/Indicator: TA100, Metabolic Activation: RAT, LIVER, S-9, AROCLOR 1254, Method: PREINCUBATION) was “active; positive” and the mutagenic call (Test System: AMES SALMONELLA TYPHIMURIUM, Strain/Indicator: TA100, Metabolic Activation: RAT, LIVER, S-9, PCB, Method: PREINCUBATION) was “active; positive”. The mutagenic call (Test System: AMES SALMONELLA TYPHIMURIUM, Strain/Indicator: TA102, Metabolic Activation: NONE, Method: PREINCUBATION) was “active; positive”, the mutagenic call (Test System: AMES SALMONELLA TYPHIMURIUM, Strain/Indicator: TA102, Metabolic Activation: RAT, LIVER, S-9, AROCLOR 1254, Method: PREINCUBATION) was “active; positive” and the mutagenic call (Test System: AMES SALMONELLA TYPHIMURIUM, Strain/Indicator: TA102, Metabolic Activation: RAT, LIVER, S-9, Method: PREINCUBATION) was “active; positive”. For the same compound, the mutagenic call (Test System: AMES SALMONELLA TYPHIMURIUM, Strain/Indicator: TA104, Metabolic Activation: NONE, Method: PREINCUBATION) was “active; positive”, the mutagenic call (Test System: AMES SALMONELLA TYPHIMURIUM, Strain/Indicator: TA104, Metabolic Activation: RAT, LIVER, S-9, AROCLOR 1254, Method: PREINCUBATION) was “active; positive” and the mutagenic call [6] was “inactive; negative”. The mutagenic call (Test System: AMES SALMONELLA TYPHIMURIUM, Strain/Indicator: TA1535, Metabolic Activation: RAT, LIVER, S-9, AROCLOR 1254, Method: PREINCUBATION) was “inactive; negative”, the mutagenic call (Test System: AMES SALMONELLA TYPHIMURIUM, Strain/Indicator: TA1537, Metabolic Activation: NONE, Method: PREINCUBATION) was “active; positive” and the mutagenic call (Test System: AMES SALMONELLA TYPHIMURIUM, Strain/Indicator: TA1537, Metabolic Activation: RAT, LIVER, S-9, AROCLOR 1254, Method: PREINCUBATION) was “active; positive”. For the same compound, the mutagenic call (Test System: AMES SALMONELLA TYPHIMURIUM, Strain/Indicator: TA1537, Metabolic Activation: RAT, LIVER, S-9, Method: PREINCUBATION) was “active; positive”, the mutagenic call (Test System: AMES SALMONELLA TYPHIMURIUM, Strain/Indicator: TA1538, Metabolic Activation: NONE, Method: PREINCUBATION) was “active; positive” and the mutagenic call (Test System: AMES SALMONELLA TYPHIMURIUM, Strain/Indicator: TA1538, Metabolic Activation: RAT, LIVER, S-9, AROCLOR 1254, Method: PREINCUBATION) was “active; positive”. The mutagenic call (Test System: CHINESE HAMSTER V-79, Strain/Indicator: V-79/AZAGUANINE, Metabolic Activation: NONE, Method: STANDARD PLATE) was “active; positive” and the mutagenic call (Test System: UDS RODENT HEPATOCYTES, Strain/Indicator: THY INCORP, Metabolic Activation: NONE) was “active; positive”.

For `ONc1ccc2ccccc2c1`, the mutagenic call [1] was “active; positive”, the mutagenic call (Test System: AMES SALMONELLA TYPHIMURIUM, Strain/Indicator: TA98, Metabolic Activation: S-9, Method: STANDARD PLATE) was “active; positive” and the mutagenic call [2] was “active; positive”. The mutagenic call (Test System: AMES SALMONELLA TYPHIMURIUM, Strain/Indicator: TA100, Metabolic Activation: S-9, Method: STANDARD PLATE) was “active; positive”, the mutagenic call (Test System: AMES SALMONELLA TYPHIMURIUM, Strain/Indicator: TA1535, Metabolic Activation: NONE, Method: STANDARD PLATE) was “active; positive” and the mutagenic call (Test System: AMES SALMONELLA TYPHIMURIUM, Strain/Indicator: TA1538, Metabolic Activation: NONE, Method: STANDARD PLATE) was “active; positive”.

In the case of `C=C1C/C(=C/C)C(=O)O[C@@H]2CCN3CC=C(COC(=O)[C@@]1(O)CO)[C@H]23`, the mutagenic call (End Point: IN VITRO CHROMOSOMAL ABERRATIONS, Test System: CHINESE HAMSTER OVARY CELLS, Metabolic Activation: NONE) is reported as “inactive; negative”, the mutagenic call (End Point: IN VITRO CHROMOSOMAL ABERRATIONS, Test System: CHINESE HAMSTER OVARY CELLS, Metabolic Activation: RAT, LIVER, S-9, AROCLOR 1254) is reported as “active; positive; very high frequencies of aberrations were induced in the 25 cells coun” and the mutagenic call (Test System: AMES SALMONELLA TYPHIMURIUM, Strain/Indicator: TA97, Metabolic Activation: HAMSTER, LIVER, S-9, AROCLOR 1254 (10 OR 30%), Method: PREINCUBATION) is reported as “inactive; negative”. For the same compound, the mutagenic call (Test System: AMES SALMONELLA TYPHIMURIUM, Strain/Indicator: TA97, Metabolic Activation: NONE, Method: PREINCUBATION) was “inactive; negative”, the mutagenic call (Test System: AMES SALMONELLA TYPHIMURIUM, Strain/Indicator: TA97, Metabolic Activation: RAT, LIVER, S-9, AROCLOR 1254 (10 OR 30%), Method: PREINCUBATION) was “inactive; negative” and the mutagenic call (Test System: AMES SALMONELLA TYPHIMURIUM, Strain/Indicator: TA98, Metabolic Activation: HAMSTER, LIVER, S-9, AROCLOR 1254 (10 OR 30%), Method: PREINCUBATION) was “inactive; negative”. The mutagenic call [3] was “inactive; negative”, the mutagenic call (Test System: AMES SALMONELLA TYPHIMURIUM, Strain/Indicator: TA98, Metabolic Activation: RAT, LIVER, S-9, AROCLOR 1254 (10 OR 30%), Method: PREINCUBATION) was “inactive; negative” and the mutagenic call (Test System: AMES SALMONELLA TYPHIMURIUM, Strain/Indicator: TA100, Metabolic Activation: HAMSTER, LIVER, S-9, AROCLOR 1254 (10%), Method: PREINCUBATION) was “inactive; negative”. For the same compound, the mutagenic call (Test System: AMES SALMONELLA TYPHIMURIUM, Strain/Indicator: TA100, Metabolic Activation: HAMSTER, LIVER, S-9, AROCLOR 1254 (30%), Method: PREINCUBATION) was “active; positive”, the mutagenic call [5] was “inactive; negative” and the mutagenic call (Test System: AMES SALMONELLA TYPHIMURIUM, Strain/Indicator: TA100, Metabolic Activation: RAT, LIVER, S-9, AROCLOR 1254 (10%), Method: PREINCUBATION) was “inactive; negative”. The mutagenic call (Test System: AMES SALMONELLA TYPHIMURIUM, Strain/Indicator: TA100, Metabolic Activation: RAT, LIVER, S-9, AROCLOR 1254 (30%), Method: PREINCUBATION) was “active; positive”, the mutagenic call (Test System: AMES SALMONELLA TYPHIMURIUM, Strain/Indicator: TA1535, Metabolic Activation: HAMSTER, LIVER, S-9, AROCLOR 1254 (10 OR 30%), Method: PREINCUBATION) was “inactive; negative” and the mutagenic call [6] was “inactive; negative”. The mutagenic call (Test System: AMES SALMONELLA TYPHIMURIUM, Strain/Indicator: TA1535, Metabolic Activation: RAT, LIVER, S-9, AROCLOR 1254 (10 OR 30%), Method: PREINCUBATION) was “inactive; negative”.
